{"source": "patent EP1153612A1", "about": "“ANTICANCER AGENT POTENTIATORS” (Tsuruo, Takashi, priority 1999, dated 2000)", "tested_on": "topoisomerase IIα", "experiment": "Amount of expression of topoisomerase IIα in whole cell extract by western blotting", "type": "cell-based, human", "conditions": "glucose starvation condition 14 hours; PSI, MG115, MG132 5 µM; lactacystin 10 µM; E64, ZLLal 50 µM; FIG. 5(a)-(c)", "source_text": "Topoisomerase II inhibiting anticancer drug stabilizes a complex (cleavable complex) consisting of the DNA and topoisomerase IIα occurring in a catalytic reaction process of topoisomerase IIα to cause DNA damage. Therefore, cell-killing effect of the topoisomerase II-inhibiting anticancer drug depends on the amount of intracellular expression of topoisomerase IIα essential for formation of the cleavable complex. Then, the amount of expression of topoisomerase IIα in the cultured cancer cell under the glucose starvation and hypoxia environment that are found in the solid cancer and the effect of the proteasome inhibiting agent to the amount of expression were examined.\nThe culture condition of cells is same as that described in Example 1 including the M phase synchronous culture method and culture under the glucose starvation condition. Culture under hypoxia condition, that is found in the solid cancer, similar to glucose starvation was carried out using the culture medium (that prepared by adding 5% FBS to RPMI1640 culture medium) under the ordinary condition in a Gaspack 100 anaerobic system (Becton Dickinson made). Culture under the glucose starvation condition and hypoxia condition was carried out for 14 hours .\nWith the purpose to prepare a whole cell extract solution, cells culture under the above described condition were washed with an ice-cooled PBS twice and then, cells were removed from the culture dish by using a cell scraper (Sumitomo Bakelite made) for collection. Cells collected were precipitated by centrifugation and then, dissolved in an SDS sample buffer to collect as the extract solution from all cells. For reference, the composition of the SDS sample buffer was 10% v/v, glycerol, 5% 2-mercaptoethanol, 2% SDS (sodium lauryl sulfate), and 62.5 mM tris-hydrochloric acid (pH 6.8).\nThe amount of topoisomerase IIα in the extract solution from all cells was measured by the western blotting method. The extract solution from all cells containing a total protein quantity of 30 µg was put on an SDS polyacrylamide gel (4-20 Multigel: Daiichi Pure Chemicals K.K. made) and subjected to electrophoresis in an electrophoresis buffer (25 mM tris, 192 mM glycine, and 0.1% SDS) in a 40 mA constant current for 1 hour. Subsequently, blotting was carried out in 4°C blotting buffer (25 mM tris, 192 mM glycine, and 20% methanol) in a 50 V constant voltage for 12 hours to transfer a protein separated in the SDS polyacrylamide gel to a nitrocellulose membrane. This nitrocellulose membrane was soaked in a blocking buffer (0.1% Tween 20, 4% skim milk-added PBS) for 1 hour to carry out blocking. The nitrocellulose membrane blocked was soaked in a solution, that was prepared by adding anti-topoisomerase IIα antibody (Cambridge Research Biochemicals Corp. made) of the final concentration 1 µg/ml as the primary antibody to the blocking buffer solution, for 1 hour. The nitrocellulose membrane was washed with the blocking buffer three times (5 minutes once), and then, soaked in the solution, in which a 1/1000 volume of an antimouse antibody (Amersham Pharmacia Biotech made) labeled with horse radish peroxidase as a secondary antibody had been added to the blocking buffer, for 1 hour. The nitrocellulose membrane was washed with the blocking buffer three times (5 minutes once), and then, washed with the PBS, to which 0.1% Tween 20 was added, three times (5 minutes once). The nitrocellulose membrane after completion of antibody reaction and washing was treated with the ECL reagent (Amersham Pharmacia Biotech made) after a handling manual and a topoisomerase IIα-specific signal was detected on an X-OMAT™AR film (Kodakmade). For reference, steps after blotting was carried out in a room temperature. […]\nThe cell culture condition for both M phase-synchronized culture method and culture under the glucose starvation condition was as described in Example 1. […]"}
{"smiles": "CC(=O)N[C@@H](CSC(=O)[C@]1([C@@H](O)C(C)C)NC(=O)[C@H](C)[C@@H]1O)C(=O)O", "note": "[lactacystin]", "values": [{"measurement": "expressed amount of topoisomerase IIα", "value": "similarly inhibits drop of expression of topoisomerase IIα"}]}
